According to patent publication US7045627B2, “Dichlorinated heterocyclic compounds and methods of synthesis” (R.T. Alamo Ventures I, LLC, priority 2002, dated 2006):

System: PDE1
Assay: PDE1 enzyme inhibition assay
Format: biochemical
Conditions: PDE1 partially purified from bovine heart; 25° C.; varying concentrations; 1% DMSO vehicle
Source text: In this example, dichloroflosequinan was subjected to biochemical enzyme assays to determine its respective percent inhibition of a variety of phosphodiesterases (PDE1–PDE6). The methods used have been adapted from those described in the scientific literature, see Hidaka and Asano “Human blood platelet 3′:5′ cyclic nucleotide phosphodiesterase. Isolation of low-Km and high Km phosphodiesterase.” Biochem. Biophys. […] Unhydrolyzed cAMP was bound to AGI-X2 resin, and the remaining [^3H]adenosine in the aqueous phase was quantitated by scintillation counting. • PDE2: PDE2 partially purified from human platelets was used. […] Unhydrolyzed cAMP was bound to AGI-X2 resin, and the remaining [^3H]adenosine in the aqueous phase was quantitated by scintillation counting. • PDE3: PDE3 partially purified from human platelets was used. […] Unhydrolyzed cAMP was bound to AGI-X2 resin, and the remaining [^3H]adenosine in the aqueous phase was quantitated by scintillation counting. • PDE4: PDE4 partially purified from human U-937 pronocytic cells was used. […] Unhydrolyzed cAMP was bound to AGI-X2 resin, and the remaining [^3H]adenosine in the aqueous phase was quantitated by scintillation counting. • PDE5: PDE5 partially purified from human platelets was used. […]

Cn1cc([S+]([O-])C(Cl)Cl)c(=O)c2ccc(F)cc21 (stereo not shown) [dichloroflosequinan, 3-dichloromethylsulfinyl-7-fluoro-1-methyl-4-quinolone]
inhibition of PDE1: greater than 50%
